We go through four molecules from article PMC10114980, “Triple targeting of mutant EGFR^L858R/T790M, COX-2, and 15-LOX: design and synthesis of novel quinazolinone tethered phenyl urea derivatives for anti-inflammatory and anticancer evaluation” (Journal of Enzyme Inhibition and Medicinal Chemistry, 2023).

Data set [1] has as its system LPS-induced NO production in RAW 264.7 cells. The experiment in a line: NO production in LPS-activated RAW 264.7 macrophage cells (DAF-FM diacetate). It counts as cell-based. The conditions noted are these: Mus musculus, RAW264.7; LPS-activated RAW 264.7 cells; mean ± SEM, three replicates. How it is done: TNF-α and IL-6 production were detected in RAW 264.7 macrophage cell culture supernatants following the induction of inflammation by LPS. Moreover, the probes of oxidative species 2,7-dichlorofluorescein diacetate (DCFH-DA) (Molecular Probes) and NO, 4-amino-5-methylamino-2,7-difluorofluorescein diacetate (DAF-FM diacetate) (Molecular Probes) were used to investigate the antioxidant and NO production inhibitory potential of the test compounds. Briefly, RAW 264.7 cells were cultured in black 96 well plates (200 000 cells/mL, 100 µl/well) for 24 h followed by the incubation with the individual test compounds or the reference drugs at different concentrations (12.5, 25, 50, and 100 µM) for 2 h at 37 °C. LPS was then added at a final concentration of 1 µg/mL for an additional 18 h. The cell culture supernatant was collected from cells treated with the different compounds at 25 µM to measure TNF-α and IL-6 levels (1:10 dilution) using DuoSet ELISA kits (R&D Systems, Minneapolis, MN) following the manufacturer’s instructions. Then, the plates were washed to perform ROS and NO detection assays as detailed in our previous studies[16]^,[27].

Data set [2] relates to A549/ATCC. The experiment in a line: NCI single dose screen, A549/ATCC. It counts as cell-based. To be noted: Homo sapiens, non-small cell lung cancer, single dose 10^−5 M, read-out: growth inhibition percentage. How it is done: (§1) Screening of the anticancer activity of the newly synthesised compounds (6a, 6c, 6d, 6e, 6j, 6l, 6m, 6n, 6o, and 6p) was performed by the US National Cancer Institute (NCI) using 60 different human tumour cell lines in accordance with standard procedures formerly reported.
(§2) In vitro anticancer screening was carried out for the selected compounds at a single dose (10^−5 M) against 60 different human tumour cell lines of nine different cancer cell types: leukaemia, lung, colon, CNS, melanoma, ovarian, renal, prostate, and breast cancers.

The test system of data set [3] is SK-MEL-28. The experiment in a line: NCI single dose screen, SK-MEL-28. It counts as cell-based. To be noted: Homo sapiens; SK-MEL-28, melanoma; single dose 10^−5 M; read-out: growth inhibition percentage. Here is the method:
as §1, §2

Data set [4] deals with SK-MEL-5. The experiment in a line: NCI single dose screen, SK-MEL-5. It counts as cell-based. The conditions noted are these: Homo sapiens; SK-MEL-5, melanoma; single dose 10^−5 M; read-out: growth inhibition percentage. How it is done:
as §1, §2

For data set [5], the system named is SNB-19. Description: NCI single dose screen, SNB-19. To be noted: Homo sapiens; SNB-19, CNS cancer; single dose 10^−5 M; read-out: growth inhibition percentage. It counts as cell-based. Here is the method: as §1, §2
Data set [6] relates to CCRF-CEM. The experiment in a line: NCI single dose screen, CCRF-CEM. It counts as cell-based. To be noted: Homo sapiens, leukaemia, single dose 10^−5 M, read-out: growth inhibition percentage. How it is done:
as §1, §2

The nature of data set [7]: Cell viability assay against normal cell line (MTS). The conditions noted are these: mouse, RAW 264.7 cells, concentrations up to 50 μM, read-out: cell viability percentage of the control values. It counts as cell-based. How it is done: To evaluate the possible non-selective cytotoxic effect of the investigated compounds (6a, 6c, 6d, 6e, 6j, 6l, 6m, 6n, 6o, and 6p) on normal cells, their effect on RAW 264.7 cells viability was assessed at different concentrations (12.5, 25, 50, and 100 µM). Cell viability was measured using 3-(4,5-dimethylthiazol-2-yl)-5-(3-carboxymethoxyphenyl)-2-(4 sulfophenyl)-2H-tetrazolium (MTS) assay (Promega, Madison, Wisconsin) according to the manufacturer’s instructions.

The subject of data set [8] is HCT-116. The experiment in a line: NCI single dose screen, HCT-116. To be noted: Homo sapiens; HCT-116, colon cancer; single dose 10^−5 M; read-out: growth inhibition percentage. The format is cell-based. How it is done:
as §1, §2

For data set [9], the system named is ACHN. Description: NCI single dose screen, ACHN. It counts as cell-based. To be noted: Homo sapiens, renal cancer, single dose 10^−5 M, read-out: growth inhibition percentage. How it is done: as §1, §2
Data set [10] concerns PC-3. The experiment in a line: NCI single dose screen, PC-3. The conditions noted are these: Homo sapiens; PC-3, prostate cancer; single dose 10^−5 M; read-out: growth inhibition percentage. It counts as cell-based. How it is done: as §1, §2
For data set [11], the system named is MDA-MB-435. The experiment in a line: NCI single dose screen, MDA-MB-435. The conditions noted are these: Homo sapiens; MDA-MB-435, melanoma; single dose 10^−5 M; read-out: growth inhibition percentage. It counts as cell-based. Here is the method: as §1, §2
Data set [12] deals with T1, soybean 15-LOX (Glycine max, UniProt P08170).
T1 sequence (P08170 1-839): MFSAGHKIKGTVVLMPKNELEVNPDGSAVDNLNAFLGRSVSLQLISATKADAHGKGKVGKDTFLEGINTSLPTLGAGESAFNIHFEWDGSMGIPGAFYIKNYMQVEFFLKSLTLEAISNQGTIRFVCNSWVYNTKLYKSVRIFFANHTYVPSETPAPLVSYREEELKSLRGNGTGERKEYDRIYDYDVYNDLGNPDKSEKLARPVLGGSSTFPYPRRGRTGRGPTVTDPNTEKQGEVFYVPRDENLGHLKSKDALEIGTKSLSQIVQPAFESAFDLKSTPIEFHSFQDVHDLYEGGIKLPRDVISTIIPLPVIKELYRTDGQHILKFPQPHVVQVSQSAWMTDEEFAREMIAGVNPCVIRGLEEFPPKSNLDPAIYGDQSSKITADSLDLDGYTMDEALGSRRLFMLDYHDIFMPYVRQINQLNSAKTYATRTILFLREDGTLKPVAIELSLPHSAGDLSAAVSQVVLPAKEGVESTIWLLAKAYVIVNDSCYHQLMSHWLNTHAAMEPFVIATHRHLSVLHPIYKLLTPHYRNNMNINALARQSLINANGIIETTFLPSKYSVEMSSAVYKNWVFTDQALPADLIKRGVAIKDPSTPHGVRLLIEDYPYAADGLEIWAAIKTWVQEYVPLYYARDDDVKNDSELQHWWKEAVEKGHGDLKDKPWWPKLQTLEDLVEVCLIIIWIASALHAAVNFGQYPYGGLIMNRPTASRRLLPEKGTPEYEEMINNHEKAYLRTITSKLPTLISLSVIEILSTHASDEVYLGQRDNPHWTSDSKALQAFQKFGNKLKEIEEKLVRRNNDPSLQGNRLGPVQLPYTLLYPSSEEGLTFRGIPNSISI
Description: 15-LOX inhibitor screening assay (Cayman). It counts as biochemical. The conditions noted are these: mean ± SEM, n = 3 replicates.

Data set [13] concerns the target T2, double mutant EGFR^L858R/T790M (Homo sapiens, UniProt P00533, L858R/T790M).
T2 construct: purchased AssayQuant Technologies, Inc. (Marlboro, MA, USA)
Description: In vitro EGFR inhibition assay, double mutant. It counts as biochemical. To be noted: for IC50: double mutant EGFR; for Selectivity (SI): ratio of the IC50 values EGFR^WT/EGFR^L858R/T790M.

In data set [14] the test system is MALME-3M. The experiment in a line: NCI single dose screen, MALME-3M. It counts as cell-based. To be noted: Homo sapiens, melanoma, single dose 10^−5 M, read-out: growth inhibition percentage. How it is done: as §1, §2
Data set [15] concerns OVCAR-4. Description: NCI single dose screen, OVCAR-4. It counts as cell-based. The conditions noted are these: Homo sapiens; OVCAR-4, ovarian cancer; single dose 10^−5 M; read-out: growth inhibition percentage. How it is done:
as §1, §2

T2 sequence (P00533 25-1210 T790M/L858R): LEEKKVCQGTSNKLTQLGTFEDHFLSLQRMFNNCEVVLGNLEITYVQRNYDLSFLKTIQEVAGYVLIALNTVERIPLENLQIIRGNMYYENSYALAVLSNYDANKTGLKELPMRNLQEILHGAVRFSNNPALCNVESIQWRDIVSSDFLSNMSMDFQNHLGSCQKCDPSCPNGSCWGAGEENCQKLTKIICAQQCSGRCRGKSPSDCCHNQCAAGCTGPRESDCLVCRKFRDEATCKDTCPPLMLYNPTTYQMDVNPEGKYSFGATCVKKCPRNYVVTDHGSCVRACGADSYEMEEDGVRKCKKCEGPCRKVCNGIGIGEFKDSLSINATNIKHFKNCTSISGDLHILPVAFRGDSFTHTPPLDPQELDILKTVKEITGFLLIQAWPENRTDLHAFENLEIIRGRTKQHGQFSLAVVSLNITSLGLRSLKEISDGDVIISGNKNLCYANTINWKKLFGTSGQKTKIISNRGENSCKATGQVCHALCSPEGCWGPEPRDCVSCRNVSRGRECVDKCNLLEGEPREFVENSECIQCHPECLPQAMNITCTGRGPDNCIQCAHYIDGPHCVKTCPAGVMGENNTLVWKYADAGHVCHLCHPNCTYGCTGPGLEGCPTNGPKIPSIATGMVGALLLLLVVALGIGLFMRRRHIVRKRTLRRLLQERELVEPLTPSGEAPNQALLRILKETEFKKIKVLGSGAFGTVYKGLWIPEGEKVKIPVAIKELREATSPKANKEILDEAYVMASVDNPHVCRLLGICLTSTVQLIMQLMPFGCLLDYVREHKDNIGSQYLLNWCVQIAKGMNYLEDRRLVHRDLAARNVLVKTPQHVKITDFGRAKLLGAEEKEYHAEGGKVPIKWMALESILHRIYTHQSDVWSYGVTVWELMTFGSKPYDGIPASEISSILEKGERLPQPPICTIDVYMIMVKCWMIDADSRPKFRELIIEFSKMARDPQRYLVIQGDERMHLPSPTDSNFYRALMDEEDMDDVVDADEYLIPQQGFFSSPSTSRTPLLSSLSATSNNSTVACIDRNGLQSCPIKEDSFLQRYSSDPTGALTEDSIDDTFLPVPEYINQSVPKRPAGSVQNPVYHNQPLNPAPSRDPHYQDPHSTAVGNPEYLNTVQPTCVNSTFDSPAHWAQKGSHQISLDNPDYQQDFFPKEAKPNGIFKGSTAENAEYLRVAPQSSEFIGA

On to `CN1c2ccccc2C(=O)N(NC(=O)Nc2ccc(F)cc2)C1c1ccccc1` (stereo not drawn) [Compound 6m, 1-(4-Fluorophenyl)-3-(1-methyl-4-oxo-2-phenyl-1,4-dihydroquinazolin-3(2H)-yl)urea], for which the half-inhibitory concentration (IC50) (usually the concentration needed to halve the response being measured) in data set [1] stood at 10.3 ± 0.27 µM; in data set [12] it was 2230 ± 360 nM; in [13], 4.07 ± 3.7 µM. Further, the inhibition (commonly the drop in the measured response relative to a control, in per cent) at 10 µM in data set [2] was less than 10%; in [3], less than 10%; in data set [4], 15.9%; in data set [5], less than 10%; in data set [6], less than 10%; in data set [8], less than 10%. Besides, the inhibition at 10 µM in data set [9] was less than 10%; in [10], 22.1%; in data set [11], less than 10%; in data set [14], 10.8%; in data set [15], 10.8%. Further, the viability (usually the share of living cells, or the viability signal relative to a control) in [7] is more than 90%.
On to `CN1c2ccccc2C(=O)N(NC(=O)Nc2ccc(F)cc2)C1c1ccc(F)cc1` (stereo not drawn) [Compound 6n, 1-(4-Fluorophenyl)-3-(2–(4-fluorophenyl)-1-methyl-4-oxo-1,4-dihydroquinazolin-3(2H)-yl)urea], for which the results for the IC50 in data set [1], in data set [12] and in [13] were 19.9 ± 0.71 µM, 2000 ± 260 nM and 13.5 ± 2.22 µM, respectively. Also, the inhibition at 10 µM in data set [2] was less than 10%; in [3], less than 10%; in [4], 20.3%; in data set [5] it was less than 10%; in data set [6], less than 10%; in data set [8] it was 22.9%. The inhibition at 10 µM was 12.6% in data set [9]; 38.1% in data set [10]; 25.8% in data set [11]; 17.6% in [14]; 29.7% in data set [15]. Besides, in data set [7], the viability was more than 90%. Moreover, the “Selectivity (SI)” value in data set [13] was more than 7.4.
Turning to `CN1c2ccccc2C(=O)N(NC(=O)Nc2ccc(F)cc2)C1c1ccc([N+](=O)[O-])cc1` (stereo not drawn) [Compound 6o, 1-(4-Fluorophenyl)-3–(1-methyl-2-(4-nitrophenyl)-4-oxo-1,4-dihydroquinazolin-3(2H)-yl)urea], the half-maximal inhibitory concentration (IC50) amounted to 1.97 ± 1.45 µM in [1], 1420 ± 230 nM in data set [12] and 36 ± 2.58 µM in data set [13]. For the same molecule, the inhibition at 10 µM in [2] was less than 10%; in data set [3], less than 10%; in data set [4], 13.7%; in [5] it was 11.4%; in data set [6], less than 10%; in data set [8] it was 21.6%. The inhibition at 10 µM was less than 10% in [9]; 31% in data set [10]; 19.9% in data set [11]; 14.1% in data set [14]; 16.4% in data set [15]. Also, the viability in data set [7] is more than 90%. Moreover, the “Selectivity (SI)” value in [13] was 1.5.
In the case of `COc1ccc(C2N(NC(=O)Nc3ccc(F)cc3)C(=O)c3ccccc3N2C)cc1` (stereo not drawn) [Compound 6p, 1-(4-Fluorophenyl)-3-(2–(4-methoxyphenyl)-1-methyl-4-oxo-1,4-dihydroquinazolin-3(2H)-yl)urea], the half-inhibitory concentration (IC50) in [1] was found to be 10.84 ± 0.05 µM; in data set [12], 3870 ± 2100 nM; in data set [13], 5.41 ± 3.21 µM. Also, the inhibition at 10 µM in data set [2] is less than 10%; in data set [3], less than 10%; in [4], less than 10%; in data set [5] it was less than 10%; in data set [6], less than 10%; in data set [8], 14%. The inhibition at 10 µM in data set [9] is less than 10%; in [10], 15.2%; in data set [11], 10.7%; in [14], less than 10%; in [15], less than 10%. The viability in [7] was more than 90%. In [13], the “Selectivity (SI)” value is more than 18.5.
